Measurements published in ChEMBL document CHEMBL1154239, “Captopril and 6-mercaptopurine: whose SH possesses higher antioxidant ability?” (Eur J Med Chem, 2009).
Calls of active or inactive are those of the source. The rule behind the calls is not given here.

Assays:
[1] = Antioxidant activity against […]-induced hemolysis of erythrocytes assessed as lag time of inhibition; type: functional, Erythrocyte
Erythrocyte = assay: Antioxidant activity assessed as protection against hemin-induced erythrocytes hemolysis up to 1 uM; type: functional, cell-based
[2] = system: Radical scavenging activity; assay: Antioxidant activity assessed as DPPH radical scavenging activity; type: functional
[3] = Antioxidant activity assessed as ABTS radical scavenging activity; type: functional
[4] = Antioxidant activity against […]-induced DNA damage assessed as inhibition time; type: functional
[5] = Antioxidant activity assessed as galvinoxyl radical scavenging activity; type: functional
[6] = Antioxidant activity assessed as protection against hemin-induced erythrocytes hemolysis at 0.6 uM; type: functional; details: Erythrocyte

Row | IC50 [2] [µM] | IC50 [3] [µM] | IC50 [5] [µM] | Compound | Time [1] [min] | Activity (Erythrocyte) | TIME [4] [h] | inhibition at 0.6 µM [6] [%]
1 | 180 | 3.9 | 65 | OC[C@H]1O[C@@H](n2cnc3c(S)ncnc32)[C@H](O)[C@@H]1O [THIOINOSINE] | 482 | inactive | 3.12 | –
2 | 43 | 6.5 | 7.1 | C[C@H](CS)C(=O)N1CCC[C@H]1C(=O)O [CAPTOPRIL] | 270 | – | 3.38 | 80
3 | 22.8 | 11.6 | – | Cc1c(C)c2c(c(C)c1O)CCC(C)(C(=O)O)O2 (stereo not given) [TROLOX] | – | – | – | –
4 | 65 | 4.7 | 188 | Sc1ncnc2nc[nH]c12 [MERCAPTOPURINE ANHYDROUS] | 406 | inactive | 3 | –
